Experimental data taken from US20260308222A1, “STABILIZED ANALOGUES OF CALCITONIN” (YISSUM RESEARCH DEVELOPMENT COMPANY OF THE HEBREW …, priority 2024, published 2026).

Experiments:
[1] = Circular dichroism analysis, percent α-helicity; assay type: physicochemical; conditions: 10-30 μM peptide, 10 mM phosphate buffer pH 7, SDS, 2 h folding
Protocol: Following synthesis of the calcitonin analogues, the helicity of the calcitonin analogues was assessed by circular dichroism analysis. Far ultraviolet spectra (FIG. 6) were obtained from 195-260 nm on J-180 spectropolarimeter (Jasco) using 10-30 μM of sCT and all analogues in 10 mM phosphate buffer pH 7 and in the presence of sodium dodecyl sulphate (SDS), which were left for 2 h to allow folding. Each spectrum represents the average of 3 scans, and the mean residue ellipticity (θMRE) was calculated according to the following equation: […]
Percentage helicity of peptides as presented in Table 2 was calculated according to the following equation (Sommese, et al. 2010): […]
where n is the number of amino acids in the peptide.

[2] = Degradation in simulated gastric fluid (SGF); assay type: in vitro ADME; conditions: pH 1.3, 37 °C
Protocol: sCT and its analogues were evaluated for their degradation in simulated gastric fluid (SGF). The stock solution of each analogue was prepared by dissolving 2 mg of the peptide in 1 mL water. The stock solution of pepsin enzyme was prepared by dissolving 5 mg of pepsin in 5 mL of 10 mM HCl (1 mg/mL), and then was diluted to a 0.2 mg/mL with 10 mM HCl. 7 For degradation, 34 μL of pepsin (0.2 mg/mL) was added to 100 μL of peptide (2 mg/mL) at pH 1.3 and the reaction incubated at 37° C. To monitor the degradation, 10 μL of the reaction aliquots were taken and quenched with 10 μL of 10 mM NaOH every 30 min for several hours and analyzed by HPLC using XSelect C18 column ([…], 130 A, 4.6×150 mm) with a gradient of 5-70% of 0.1% TFA in MeCN over 20 min with monitoring at 220 nm.

[3] = system: human calcitonin receptor (hCTR); conditions: Potts Jr., 1992; cited from earlier work
[4] = system: vertebral fracture / acute back pain; conditions: cited from earlier work
[5] = molecular target: T1, calcitonin receptor (CTR) (Homo sapiens, UniProt P30988); assay: Ca^2+ concentration assay, HEK293 CALCR-HiTSeeker cell line; assay type: cell-based; set-up: expressed in transfected cells; conditions: HEK293 CALCR-HiTSeeker cells
T1 sequence (P30988 25-474): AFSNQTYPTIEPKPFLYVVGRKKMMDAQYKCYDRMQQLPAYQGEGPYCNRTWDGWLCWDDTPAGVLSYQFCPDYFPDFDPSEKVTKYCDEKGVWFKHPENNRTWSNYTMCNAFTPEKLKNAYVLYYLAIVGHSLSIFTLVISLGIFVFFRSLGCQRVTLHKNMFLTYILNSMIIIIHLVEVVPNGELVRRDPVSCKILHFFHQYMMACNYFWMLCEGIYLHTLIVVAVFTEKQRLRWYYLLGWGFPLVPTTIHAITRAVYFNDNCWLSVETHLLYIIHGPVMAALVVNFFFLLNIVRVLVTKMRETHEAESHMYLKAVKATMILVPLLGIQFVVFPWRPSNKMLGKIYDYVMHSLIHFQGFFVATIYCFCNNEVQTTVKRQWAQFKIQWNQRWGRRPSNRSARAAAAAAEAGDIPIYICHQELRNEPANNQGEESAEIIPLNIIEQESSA

[6] = Degradation in simulated intestinal fluid (SIF); conditions: simulated intestinal fluid, pH 6.8, SIF t1/2, pancreatin 2 mg/mL stock, pH 6.8, 37 °C
[7] = molecular target: T1, calcitonin receptor (CTR); assay: cAMP accumulation assay, U2OS Red cAMPNomad-CALCR cell line; assay type: cell-based; set-up: expressed in transfected cells; host or cells: U2OS Red cAMPNomad-CALCR; conditions: U2OS Red cAMPNomad-CALCR cells

| Molecule | % α helicity [1] | SGF t1/2 ([2]; pepsin 0.2 mg/mL stock) | half-life ([2]; simulated gastric fluid, pH 1.3, pepsin 0.2 mg/mL stock, read-out: SGF t1/2) | affinity for hCTR [3] | potency [3] | side effects of parenteral sCT ([4]; intra-muscular and subcutaneous injections) | Ca^2+ EC50 / efficacy [5] | EC50 ([5]; read-out: Ca^2+ EC50) | half-life [6] | cAMP EC50 / potency [7] | EC50 ([7]; overnight incubation, read-out: cAMP EC50) | vertebral fracture recurrence and pain relief ([4]; Chesnut III, et al., 2000) |
| --- | --- | --- | --- | --- | --- | --- | --- | --- | --- | --- | --- | --- |
| CC(C)C[C@H](NC(=O)[C@H](CCCCN)NC(=O)CNC(=O)[C@H](CC(C)C)NC(=O)[C@@H](NC(=O)[C@@H]1CSSC[C@H](N)C(=O)N[C@@H](CO)C(=O)N[C@@H](CC(N)=O)C(=O)N[C@@H](CC(C)C)C(=O)N[C@@H](CO)C(=O)N[C@@H]([C@@H](C)O)C(=O)N1)C(C)C)C(=O)N[C@@H](CO)C(=O)N[C@@H](CCC(N)=O)C(=O)N[C@@H](CCC(=O)O)C(=O)N[C@@H](CC(C)C)C(=O)N[C@@H](Cc1c[nH]cn1)C(=O)N[C@@H](CCCCN)C(=O)N[C@@H](CC(C)C)C(=O)N[C@@H](CCC(N)=O)C(=O)N[C@H](C(=O)N[C@@H](Cc1ccc(O)cc1)C(=O)N1CCC[C@H]1C(=O)N[C@@H](CCCNC(=N)N)C(=O)N[C@H](C(=O)N[C@@H](CC(N)=O)C(=O)N[C@H](C(=O)NCC(=O)N[C@@H](CO)C(=O)NCC(=O)N[C@H](C(=O)N1CCC[C@H]1C(N)=O)[C@@H](C)O)[C@@H](C)O)[C@@H](C)O)[C@@H](C)O [sCT, reference compound] | 98.6% | 35.6 ± 0.1 min | 35 min | highest affinity for the human calcitonin receptor (hCTR) | highest potency | gastrointestinal (GI) disturbances and injection site reactions | similar | 87 ± 17.5 nM | 7.1 ± 0.7 min | EC50 in the nanomolar range | 13.5 ± 4.5 nM |  |
| calcitonin |  |  |  |  |  |  |  |  |  |  |  | reduces the risk of vertebral fracture recurrence and provides pain relief for acute back pain caused by vertebral fractures |
